{
  "source": "paper PMC7617869",
  "about": "“Molecular glues that inhibit deubiquitylase activity and inflammatory signaling” (Nature Structural & Molecular Biology, 2025)",
  "assay_type_in_all_cases": "cell-based, human",
  "key": {"[1]": {"test_system": "IFNAR1 cell surface levels in sgROSA MCF10A cells", "experiment": "MCF10A sgROSA IFNAR1 cell surface levels (FACS)", "protocol": "To study the direct effect of BRISC DUB inhibitors, IFNAR1 surface levels were measured using flow cytometry (FACS) analysis. For this purpose, MCF10A WT and MCF10A BRCC45 KO cells expressing […]\nBRCC45 WT or BRCC45 R137A were used. […]\nminutes prior to the addition of 50 ng/mL of hIFN-Iα for various time points (45 minutes and 90 minutes).\nAfter IFN treatment, cells were dissociated from plate using cell dissociation Buffer (ThermoFisher Scientific, #13150016) and were stained with LIVE/DEAD™ Fixable Violet Dead Cell Stain Kit, for 405 nm excitation (ThermoFisher Scientific, #L34963) for 30 minutes, as per the kit protocol. The cells were then washed using FACS buffer (DPBS, 1% BSA, 2 mM EDTA, 0.09% sodium azide) and transferred to 96-well round bottom plates. Resuspended cells were divided into three repeats for each sample, each was surface stained for 1 hour at 4 °C with: 1. Human IFN-alpha/beta R1 Antibody (R&D systems, #MAB245), 2. Mouse IgG1 Isotype Control (R&D systems, #MAB002), 3. FACS buffer (control cells).\nFollowing incubation, cells were washed once with FACS buffer and were labelled for 30 minutes at 4 °C with either Biotin-SP-conjugated AffiniPure Donkey Anti-Mouse IgG (H+L) (Jackson Immunoresearch Laboratories) for samples 1 and 2 or with FACS buffer for sample 3. Cells were washed twice with FACS buffer and were labelled for 15 minutes at 4 °C with either R-Phycoerythrin-conjugated Streptavidin (Jackson Immunoresearch Laboratories) for samples 1 and 2 or with FACS buffer for sample 3. Cells were washed 3 times with FACS buffer and were analysed by FACS (MACSQuant, Miltenyi Biotec). For each sample from group 1 the Geo mean fluorescence intensity (MFI) of its isotype sample was reduced. IFNAR1 cell surface percentage was calculated by 100*(MFI"}, "[2]": {"test_system": "IFNAR1 ubiquitylation in MCF10A cells", "experiment": "TUBE pull-down of ubiquitylated IFNAR1 in MCF10A cells", "design": "Blot Mean, Background substracted: unit not given here", "settings": "for IFNAR1 ubiquitylation: MCF10A, IFNα2 50 ng/mL, 5 µM, compared to DMSO, AP-5-145 and FX-171-A", "protocol": "Tandem ubiquitin binding entity (TUBE) pull -down assay\nThe TUBE pull -down experiment was performed according to the manufacturer’s (UM401: TUBE 1 Agarose; LifeSensors) protocol with modifications. MCF10A cells (~20 x10 6) were pre -treated with the […] inhibitor panel (5 µM) or DMSO vehicle control for 1 hour followed by addition of recombinant IFNα2 (50 ng/m L, 592702, BioLegend). Following 1 hour incubation with IFNα2, cells were lysed in cell lysis buffer (50 mM Tris -HCl, pH 7.5, 0.15 M NaCl, 1 mM EDTA, 1% NP -40, 10% glycerol, 10 mM […]\nNEM). Cell lysates were clarified by centrifugation at 15,000 g for 10 minutes at 4 °C. Clarified lysates were pre-cleared with control uncoupled agarose beads (UM400, LifeSensors) for 30 minutes on a rotator at 4 °C followed by centrifugation at 5,000 g for 2 minutes. Equal amount of pre-cleared lysates from individual samples were incubated with 20 µL Agarose-TUBE beads (pre-equilibrated with 1X Tris-buffered saline (TBS)) overnight on a rotator at 4 °C. Beads were collected by centrifugation at 5,000 g for 2 minutes at RT followed by four stringent washes with 1X TBST (TBS, 0.1% Tween-20). TUBE-pulldown proteins were eluted by boiling Agarose-TUBE beads in 2X LDS sample buffer supplemented with […] DTT for 15 minutes. Eluted proteins were resolved on NuPAGE™ 4–12% Bis–Tris gel followed by Western blotting using anti-IFNAR1 antibody (ab124764, Abcam).\n(§1) PBMCs in vitro experiments\n(§2) Peripheral blood mononuclear cells (PBMCs) from healthy and SSc donors were separated using density gradient method (Leucosep™, Greiner Bio-One International) from EDTA anticoagulated peripheral blood; isolated cells were washed twice by PBS. PBMCs were then incubated in RPMI1640 […]\nFor healthy PBMCs, cells were stimulated with 20 ng/mL of IFN (+/- compounds or DMSO). For SSc PBMCs, cells were in basal conditions with no additional IFN stimulation. Cells were centrifuged at 300 g for 10 minutes. Supernatant was removed and subjected to R&D Systems DY266 Human CXCL10/IP-10 DuoSet ELISA (Biotechne) in duplicates, according to manufacturer’s guidance. Concentration of CXCL10 was determined according to a 4-parameter logistic regression standard curve. RNA was extracted from cell pellets using TRIzol™ (ThermoFisher Scientific, Waltham, MA) and processed using Quick-RNA Miniprep Kit (Zymo Research) as per the manufacturer’s instruction.\nFor Type I IFN signalling analysis, the human IFN I RT2 Profiler PCR Array (Qiagen, PAMM-016ZE) was performed on available RNA from healthy (n=3) and SSc (n=9) donors. RNA was converted to cDNA using RT2 First Strand Kit (Qiagen). Next, the cDNA was mixed with RT2 SYBR Green Mastermix (Qiagen, Venlo). Successful PCR performance was confirmed by assay tests for genomic DNA contamination, RNA sample quality, as well as single melt curve determination and <35 Ct for each gene, leading to validated gene expression of 67 genes. Relative expression for each gene was determined, firstly by ∆CT calculated using the geometric mean of 4 housekeeping genes (ACTB, GAPDH, HPRT1, RPLP0), followed by 2^(-∆CT), and expressed as fold change to control, according to manufacturer’s guidance. IFN2α-induced ISGs in healthy donors were determined using a Student’s t-test (two-tail distribution and equal variances) on the triplicate fold change in 2^(-ΔCT) values between […]\ndonors). Heatmaps were generated using the “pheatmap” function in R (v4.0.2) and RStudio (v1.3.1093) applying row scaling to standardise the expression data across samples (R core team 2020.\nR Foundation for Statistical Computing). The IFN2α inducible genes determined in healthy donors […]\n171-C. To account for Type I IFN signalling heterogeneity across samples, the mean 2^(-∆CT) for each […]\nrelative gene expression, illustrated as a fold change and visualised in log2. The Type I IFN signalling array data for the patient samples is included in Source Data Figure 6, Extended Data Fig. 9."}, "[3]": {"test_system": "CXCL10 secretion in healthy PBMCs", "experiment": "Healthy PBMC CXCL10 ELISA, IFNα2-stimulated", "protocol": "as §1, §2\nFor healthy PBMCs, cells were stimulated with 20 ng/mL of IFN (+/- compounds or DMSO). For SSc PBMCs, cells were in basal conditions with no additional IFN stimulation. Cells were centrifuged at 300 g for 10 minutes. Supernatant was removed and subjected to R&D Systems DY266 Human CXCL10/IP-10 DuoSet ELISA (Biotechne) in duplicates, according to manufacturer’s guidance. Concentration of CXCL10 was determined according to a 4-parameter"}, "[4]": {"settings": "IFN + compound, three replicates"}, "[5]": {"settings": "sgROSA cells, IFN 50 ng/ml, 5 μM, 90 min"}, "[6]": {"settings": "TUBE pull-down IFNAR1 blot densitometry, biological replicates 1-3"}},
  "note": "Several values for one entry are separate records, joined by “and”; a condition that tells them apart may be missing. Equal entries are not always repeated.",
  "data": [
    {"molecule": "O=C(NC1CCNCC1)c1nn(C(=O)c2c(Cl)cccc2Cl)cc1NC(=O)c1c(Cl)cccc1Cl", "note": "[JMS-175-2]", "values": [
      {"measurement": "IFNAR1 cell surface levels", "setting": "[1]; [4]", "result": "40.6849 and 39.7065 and 39.3396"},
      {"measurement": "IFNAR1 cell surface levels", "setting": "[1]; [5]", "result": "reduction in IFNAR1 cell surface levels"},
      {"measurement": "IFNAR1 ubiquitylation", "setting": "[2]", "result": "elevated levels of IFNAR1 ubiquitylation"},
      {"measurement": "Blot Mean, Background substracted", "setting": "[2]; [6]", "result": "63.299 and 57.607 and 102.609"},
      {"measurement": "CXCL10, healthy donor PBMCs (Fig. 6c)", "setting": "[3]; Healthy donor HC1", "result": 63.2851},
      {"measurement": "CXCL10, healthy donor PBMCs (Fig. 6c)", "setting": "[3]; Healthy donor HC2", "result": 45.1027},
      {"measurement": "CXCL10, healthy donor PBMCs (Fig. 6c)", "setting": "[3]; Healthy donor HC3", "result": 43.5189}
    ]},
    {"molecule": "Cn1cc(NC(=O)c2c(Cl)cccc2Cl)c(C(=O)NC2CCN(C(=O)c3c(Cl)cccc3Cl)CC2)n1", "note": "[AP-5-145]", "values": [
      {"measurement": "IFNAR1 cell surface levels", "setting": "[1]; [4]", "result": "50.5911 and 49.9799 and 55.4831"},
      {"measurement": "Fold Change", "setting": "[2]; TUBE pull-down IFNAR1 blot densitometry, relative to DMSO = 1, biological replicates 1-3", "result": "1.205 and 1.413 and 1.158"},
      {"measurement": "Blot Mean, Background substracted", "setting": "[2]; [6]", "result": "48.742 and 43.008 and 72.446"},
      {"measurement": "CXCL10, healthy donor PBMCs (Fig. 6c)", "setting": "[3]; Healthy donor HC1", "result": 89.7308},
      {"measurement": "CXCL10, healthy donor PBMCs (Fig. 6c)", "setting": "[3]; Healthy donor HC2", "result": 123.351},
      {"measurement": "CXCL10, healthy donor PBMCs (Fig. 6c)", "setting": "[3]; Healthy donor HC3", "result": 106.128}
    ]},
    {"molecule": "O=C(NC1C2CNCC21)c1nn(C(=O)c2c(Cl)cccc2Cl)cc1NC(=O)c1c(Cl)cccc1Cl", "note": "(centres unmarked) [FX-171-C]", "values": [
      {"measurement": "IFNAR1 cell surface levels", "setting": "[1]; [4]", "result": "42.0302 and 41.4187 and 41.1741"},
      {"measurement": "IFNAR1 cell surface levels", "setting": "[1]; [5]", "result": "reduction in IFNAR1 cell surface levels"},
      {"measurement": "IFNAR1 ubiquitylation", "setting": "[2]", "result": "elevated levels of IFNAR1 ubiquitylation"},
      {"measurement": "Blot Mean, Background substracted", "setting": "[2]; [6]", "result": "52.149 and 49.341 and 95.856"},
      {"measurement": "CXCL10, healthy donor PBMCs (Fig. 6c)", "setting": "[3]; Healthy donor HC1", "result": 77.343},
      {"measurement": "CXCL10, healthy donor PBMCs (Fig. 6c)", "setting": "[3]; Healthy donor HC2", "result": 68.1378},
      {"measurement": "CXCL10, healthy donor PBMCs (Fig. 6c)", "setting": "[3]; Healthy donor HC3", "result": 64.5563}
    ]}
  ]
}
